Measured values: US10532088B2, “Adoptive cellular therapy using an agonist of retinoic acid receptor-related orphan receptor gamma and related therapeutic methods” (Lycera Corporation, priority 2014, dated 2020)

What was measured:
[1] = molecular target: T1, RORγ-LBD (Homo sapiens, UniProt P51449); experiment: RORγ-Ligand Binding Domain (LBD) TR-FRET Assay; type: biochemical
T1 construct: HIS-tagged RORγ-LBD protein was expressed in SF9 cells using a baculovirus expression system; made in house; host or cells: SF9 insect cells, baculovirus; lysate used
T1 sequence (P51449 269-508 limits assumed): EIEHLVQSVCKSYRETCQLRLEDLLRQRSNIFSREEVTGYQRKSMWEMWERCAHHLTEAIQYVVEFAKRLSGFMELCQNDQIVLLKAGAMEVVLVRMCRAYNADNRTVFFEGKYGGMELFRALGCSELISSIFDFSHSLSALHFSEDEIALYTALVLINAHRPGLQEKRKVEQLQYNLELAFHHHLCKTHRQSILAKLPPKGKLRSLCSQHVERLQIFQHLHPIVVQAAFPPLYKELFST
Method: HIS-tagged RORγ-LBD protein was expressed in SF9 cells using a baculovirus expression system. The lysate was diluted in assay buffer (50 mM Tris pH 7.0, 50 mM KCl, 1 mM EDTA, 0.1 mM DTT, 0.01% BSA) to obtain RORγ-LBD final concentration of ˜3 nM in a 384-well assay plate (need to titrate for each batch of protein).
A stock of biotinylated-LXXLL peptide from coactivator SRC1 (Biotin-[…]) was prepared in assay buffer and added to each well (200 nM final concentration). […] RORγ antagonist ursolic acid was also included at a final concentration of 2 μM. Compounds were diluted in DMSO and further diluted in assay buffer with a final DMSO concentration at 1%.

[2] = molecular target: T2, Gal4-RORγ-LBD (Homo sapiens, UniProt P51449); experiment: Gal4-RORγ Luciferase Reporter Assay in HEK-293T Cells; type: cell-based
T2 construct: expressed in transfected cells
T2 sequence (P51449 269-508 limits assumed): T1 sequence (P51449 269-508 limits assumed)
Method: In the following protocol, HEK-293 cells were transfected with a construct comprising the Gal4 DNA binding domain fused to the ligand binding domain of RORγ (Gal4-RORγ-LBD) in a pcDNA3.1neo plasmid, and also with a reporter construct comprising pGL4.31 Gal4-luciferase (Promega). Control cells were prepared similarly using empty pcDNA3.1neo and pGL4.31 vectors.
Trans-IT reagent (Mirus, 60 μL) at room temperature was added drop wise to OptiMEM (Invitrogen, 1.5 ml). This reagent mixture was mixed by inversion then incubated for 5 to 30 minutes at room temperature. It then was added to a solution of both expression vectors (5 μg each), mixed, and incubated at room temperature for about 20 minutes. HEK-293 cells were harvested from incubation flasks by removing the media, treating with TrypLE Express (Invitrogen), and incubating until the cells detached from the bottom of the flask (approximately 2-5 minutes). […]
The cells were harvested as described above, counted, and centrifuged to obtain the desired number of cells, then re-suspended in complete growth media at 0.75×10^6 cells/mL. […] The luciferase intensity was read on an Envision plate reader (Perkin Elmer). […] The Max Response is the upper plateau in the signal as determined by line-fit using a 4-parameter logistic model in PRISM (GraphPad).

[3] = tested on: EG7 tumors; experiment: Adoptive transfer of Tc17 cells treated ex vivo with RORγ agonist to mice bearing EG7 tumors; type: in vivo; conditions: Tc17 cells exposed ex vivo to compound at 10 μM; FIG. 1 Part A
Method: EG7 cells (EL4 cells with OVA expression) were grown in RPMI 1640 medium (Invitrogen)/10% heat-inactivated FBS (Hyclone), penicillin-streptomycin, and 50 mM β-mercaptoethanol (Invitrogen); harvested; washed with phosphate-buffered saline (PBS); and then implanted at 1×10^6 cells/mouse in PBS into the flank of mice subcutaneously. Implanted tumor cells grow into visible tumor in about one week. Mice are provided food and water ab libitum throughout the duration of the experiment.
Three to five days after tumor cell transplantation, Tc17 differentiation culture is set up. […]
When a tumor becomes visible, tumor volume is assessed by caliper measurement of the length and width and tumor volume is calculated (0.5×(length×(width)^2). When the tumor becomes visible in most mice (typically 7-10 days after implantation), mice are randomized by tumor volume (tumor volume is <500 mm^3) and divided into three groups. Differentiated Tc17 cells (with or without RORγ agonist) are counted, washed with phosphate buffered saline (PBS), and then the cells are injected into tumor-bearing mice at 5×10^6 cells/mouse intraperitoneally or intravenously using a PBS carrier to deliver the cells. […]
After T cell transfer, tumor volume was assessed every 2 to 3 days. In studies where survival is assessed, mice that are alive and have tumor volume smaller than 3000 mm^3 are considered survivors.

- EC50 ([1]; in presence of 2 μM RORγ antagonist ursolic acid): < 500 nM
- TR-FRET Assay Average Max Response ([1]; upper plateau, signal in absence of ursolic acid or test compound set as 100): **** (a value greater than 200)
- EC50 ([2]; HEK-293 cells, 2 μM ursolic acid): 500 to 5000 nM
SMILES: C[C@H]1CN(S(=O)(=O)c2cccc(C(F)(F)F)c2)c2cc(COc3c(F)cccc3Cl)ccc2O1 [Compound 1]
- Gal4-RORγ Assay Average Max Response ([2]; upper plateau, luciferase signal in absence of ursolic acid or test compound defined at 100): ** (a value in the range of greater than 90 to 150)
- change in tumor volume over time, p vs. DMSO treated Tc17 cells [3]: < 0.004
